Test results: the NIST ThermoML archive (doi:10.1016/j.jct.2006.05.008)

Assay: molar heat capacity at constant pressure
Conditions: 101.33 kPa

CCC[n+]1ccn(C)c1.[Br-] [1-methyl-3-propylimidazolium bromide]
Conditions | molar heat capacity at constant pressure [J/K/mol]
146.32 K, Glass, Small (less than 1 g) adiabatic calorimetry | 140.69
146.55 K, Crystal, Vacuum adiabatic calorimetry | 133.11
146.9 K, Crystal, Vacuum adiabatic calorimetry | 133.3
147.92 K, Crystal, Vacuum adiabatic calorimetry | 133.83
148.32 K, Metastable crystal, Small (less than 1 g) adiabatic calorimetry | 137.4
148.96 K, Crystal, Vacuum adiabatic calorimetry | 134.32
149.12 K, Glass, Small (less than 1 g) adiabatic calorimetry | 142.33
149.3 K, Crystal, Vacuum adiabatic calorimetry | 134.52
150.68 K, Crystal, Vacuum adiabatic calorimetry | 135.21
150.83 K, Metastable crystal, Small (less than 1 g) adiabatic calorimetry | 138.65
151.02 K, Crystal, Vacuum adiabatic calorimetry | 135.37
151.92 K, Glass, Small (less than 1 g) adiabatic calorimetry | 143.94
152.06 K, Crystal, Vacuum adiabatic calorimetry | 135.89
153.09 K, Crystal, Vacuum adiabatic calorimetry | 136.42
153.33 K, Metastable crystal, Small (less than 1 g) adiabatic calorimetry | 139.92
153.43 K, Crystal, Vacuum adiabatic calorimetry | 136.63
153.5 K, Glass, Small (less than 1 g) adiabatic calorimetry | 144.83
154.73 K, Glass, Small (less than 1 g) adiabatic calorimetry | 145.57
154.81 K, Crystal, Vacuum adiabatic calorimetry | 137.37
155.15 K, Crystal, Vacuum adiabatic calorimetry | 137.48
155.84 K, Metastable crystal, Small (less than 1 g) adiabatic calorimetry | 141.25
155.92 K, Glass, Small (less than 1 g) adiabatic calorimetry | 146.2
156.19 K, Crystal, Vacuum adiabatic calorimetry | 138.07
157.22 K, Crystal, Vacuum adiabatic calorimetry | 138.55
157.53 K, Glass, Small (less than 1 g) adiabatic calorimetry | 147.21
157.57 K, Crystal, Vacuum adiabatic calorimetry | 138.81
158.35 K, Metastable crystal, Small (less than 1 g) adiabatic calorimetry | 142.5
158.39 K, Glass, Small (less than 1 g) adiabatic calorimetry | 147.68
158.74 K, Metastable crystal, Small (less than 1 g) adiabatic calorimetry | 142.49
158.95 K, Crystal, Vacuum adiabatic calorimetry | 139.5
159.29 K, Crystal, Vacuum adiabatic calorimetry | 139.64
160.32 K, Crystal, Vacuum adiabatic calorimetry | 140.24
160.34 K, Glass, Small (less than 1 g) adiabatic calorimetry | 148.83
160.85 K, Glass, Small (less than 1 g) adiabatic calorimetry | 149.02
160.86 K, Metastable crystal, Small (less than 1 g) adiabatic calorimetry | 143.76
161.31 K, Metastable crystal, Small (less than 1 g) adiabatic calorimetry | 143.83
161.35 K, Crystal, Vacuum adiabatic calorimetry | 140.75
161.7 K, Crystal, Vacuum adiabatic calorimetry | 141.04
163.07 K, Crystal, Vacuum adiabatic calorimetry | 141.95
163.14 K, Glass, Small (less than 1 g) adiabatic calorimetry | 150.42
163.31 K, Glass, Small (less than 1 g) adiabatic calorimetry | 150.41
163.36 K, Metastable crystal, Small (less than 1 g) adiabatic calorimetry | 145.06
163.42 K, Crystal, Vacuum adiabatic calorimetry | 142.16
163.82 K, Metastable crystal, Small (less than 1 g) adiabatic calorimetry | 145.08
164.45 K, Crystal, Vacuum adiabatic calorimetry | 143.11
165.48 K, Crystal, Vacuum adiabatic calorimetry | 144.27
165.77 K, Glass, Small (less than 1 g) adiabatic calorimetry | 151.85
165.82 K, Crystal, Vacuum adiabatic calorimetry | 145.11
165.87 K, Metastable crystal, Small (less than 1 g) adiabatic calorimetry | 146.32
165.96 K, Glass, Small (less than 1 g) adiabatic calorimetry | 152.04
166.33 K, Metastable crystal, Small (less than 1 g) adiabatic calorimetry | 146.42
167.19 K, Crystal, Vacuum adiabatic calorimetry | 146.62
167.53 K, Crystal, Vacuum adiabatic calorimetry | 147.09
168.23 K, Glass, Small (less than 1 g) adiabatic calorimetry | 153.27
168.38 K, Metastable crystal, Small (less than 1 g) adiabatic calorimetry | 147.66
168.56 K, Crystal, Vacuum adiabatic calorimetry | 147.58
168.77 K, Glass, Small (less than 1 g) adiabatic calorimetry | 153.64
168.85 K, Metastable crystal, Small (less than 1 g) adiabatic calorimetry | 147.67
169.59 K, Crystal, Vacuum adiabatic calorimetry | 148.31
169.93 K, Crystal, Vacuum adiabatic calorimetry | 148.36
170.69 K, Glass, Small (less than 1 g) adiabatic calorimetry | 154.76
170.88 K, Metastable crystal, Small (less than 1 g) adiabatic calorimetry | 149.09
171.3 K, Crystal, Vacuum adiabatic calorimetry | 149.09
171.36 K, Metastable crystal, Small (less than 1 g) adiabatic calorimetry | 149.04
171.57 K, Glass, Small (less than 1 g) adiabatic calorimetry | 155.3
171.66 K, Crystal, Vacuum adiabatic calorimetry | 149.38
172.67 K, Crystal, Vacuum adiabatic calorimetry | 149.83
